Laboratory results taken from patent US8557764B2, “Methods of modulating immune function” (The Regents of the University of Colorado, a body corporate, priority 2007, dated 2013).
No end group written: not given here. *: point of attachment. Biotin = O=C1N[C@H]2[C@H](CS[C@H]2CCCCC(=O)*)N1

Assays:
[1] = test system: cell surface CLIP on Raji or Daudi cells; experiment: MKN1 (bioCLIP) effect on cell surface CLIP levels (flow cytometry); format: cell-based, human; conditions: 24 and 48 hours
Experimental: (§1) The ability of MKN1 (bioCLIP) to alter cell surface CLIP and CD74 levels was determined using Raji or Daudi cells.
(§2) Data were analyzed by histogram with Y axis represents cell number of the 5000 live cells versus the X axis which is a reflection of relative FITC fluorescence with either antibodies to CLIP or CD74. The distance between the histogram from the isotype control staining versus the histogram reflecting the specific stain and is a measure of level of cell surface CLIP or CD74 when staining a population of live Raji or Daudi cells.
(§3) Cell Culture Conditions: The Raji and Daudi cell lines were purchased from American Type Culture Collection, were thawed, and grown in RPMI 1640 medium supplemented with standard supplements, including 10% fetal calf serum, gentamycin, penicillin, streptomycin, sodium pyruvate, HEPES buffer, 1-glutamine, and 2-ME.
(§4) Protocol: Cells were plated into a 12 well plate with 3 mls total volume containing approximately 0.5×10^6/mL for Daudi cells and 0.5×10^6/mL for Raji cells. […]
(§5) Harvested cells were stained using standard staining procedure that called for a 1:100 dilution of Fitc-anti-human CLIP or CD74 antibody (Fitc, Pharmingen, Cat #554647) or isotype control. […] Samples were acquired and analyzed on a Coulter Excel Flow Cytometer.

[2] = test system: cell surface CD74 on Raji or Daudi cells; experiment: MKN1 (bioCLIP) effect on cell surface CD74 levels (flow cytometry); format: cell-based, human; conditions: 24 and 48 hours
Experimental: as §1, §2, §3, §4, §5

[3] = test system: cell surface CD1d on Raji and Daudi cells; experiment: Cell surface expression of CD1d after competing peptide treatment (flow cytometry); format: cell-based, human; conditions: 50 microMolar, both cell lines
Experimental: (§6) The ability of synthetic peptides to compete with binding of CLIP peptides and result in the cell surface expression of CD1d was determined.
(§7) Results: The results shown in FIG. 5 are expressed in histogram analyses. The Y axis represents cell number of the 5000 live cells versus the X axis which is a reflection of relative Fitc fluorescence versus Streptavidin-PE (eBioscience, Cat. #12-4317) that will bind with high affinity to cell-bound biotinylated peptides. The distance between the histogram from the isotype control staining versus the histogram reflecting the specific stain and is a measure of level of cell surface CD1d.
as §3
(§8) Protocol: Cells were plated into a 12 well plate with 3 mls total volume containing approximately 1.5×10^6/well for Daudi cells and 3.0×10^6/well for Raji cells. Treatment groups included no treatment as control and biotinylated […] […]
(§9) Harvested cells were stained using standard staining procedure that called for a 1:100 dilution of PE anti-CD1d. […] Samples were acquired and analyzed on a Coulter Excel Flow Cytometer.

[4] = test system: human B cell lines, Raji and Daudi; experiment: Binding of biotinylated synthetic peptide to B cell lines (Streptavidin-PE flow cytometry); format: cell-based; conditions: 50 microMolar
Experimental: as §6, §7, §3, §8, §9

[5] = relative to cyclosporin; cited from earlier work

For “MKN1: 19 mer, Biotin at N-Terminal = Biotinylated CLIP; SGG GSK MRM ATP LLM QAL Y (SEQ ID NO. 5) (Biotin-SGGGSKMRMATPLLMQALY)”, the “cell surface CLIP levels” value [1] was “alters” and the “cell surface CD74 levels” value [2] was “alters”.
For “Biotinylated FRIMAVLAS: biotinylated synthetic peptide FRIMAVLAS (SEQ ID NO. 2), also referred to as MKN 5 (also: biotinylated)”, the “cell surface expression of CD1d” value ([3]; 4 hours) was “marginally”, the “cell surface expression of CD1d” value ([3]; 24 hours) was “slightly more” and the “binding of biotinylated peptide to the cell lines” value ([4]; 4 hours, Raji and Daudi) was “bound with high affinity”. For the same compound, the “binding of biotinylated peptide to the cell lines” value ([4]; 24 hours) was “Less binding”.
For C=CC[C@@H]1/C=C(\C)C[C@H](C)C[C@H](OC)[C@H]2O[C@@](O)(C(=O)C(=O)N3CCCC[C@H]3C(=O)O[C@H](/C(C)=C/[C@@H]3CC[C@@H](O)[C@H](OC)C3)[C@H](C)[C@@H](O)CC1=O)[C@H](C)C[C@@H]2OC [FK506, tacrolimus], the “immunosuppressive activity greater than cyclosporin” value [5] is listed as 10-100 times.
